Laboratory results reported in publication PMC6906472, “Purification and biological activity of natural variants synthesized by tridecaptin M gene cluster and in vitro drug-kinetics of this antibiotic class” (Scientific Reports, 2019).
Values after ≈ are worked out from the molar mass of the structure shown. Square brackets hold non-standard residues; d marks the D form. Peptide text beside a SMILES is read from it. * marks the point of attachment. X2 = CC[C@H](C)CCCC[C@@H](O)CC(=O)*; d(aIle) = CC[C@H](C)[C@@H](N)C(=O)O; X1 = CC[C@H](C)CCCCC(=O)*; dDab = NCC[C@@H](N)C(=O)O; βNA = c1ccc2cc(N*)ccc2c1; Dab = NCC[C@H](N)C(=O)O

Tests used:
A. baumannii ATCC 19606 [1] = settings: ATCC 19606
Protocol: (§1) MICs for all the compounds were determined by broth microdilution assay, according to CLSI guidelines[16] as described previously. Haemolysis experiments were performed with fresh rabbit RBCs[11]. All the compounds were tested at a concentration of 128 µg/ml. To obtain rabbit blood, the experiments and the protocols were in accordance with the ethical standards of the Institutional Animal Ethics Committee (IAEC) of the Institute of Microbial Technology approved (Approval no. IAEC/17/11) by Committee for the Purpose of Control And Supervision of Experiments on Animals (CPCSEA, Government of India).

E. coli CF-23 (mcr-1) = tested on: E. coli CF-23 (mcr-1)
Protocol: as §1

[2] = tested on: K. pneumoniae AH-16 (Col-R)
Protocol: as §1

[3] = tested on: K. pneumoniae AH-3 (Col-R)
Protocol: as §1

[4] = tested on: K. pneumoniae ATCC 700603
Protocol: as §1

K. pneumoniae GMCH 13 [5] = tested on: K. pneumoniae GMCH 13
Protocol: as §1

K. pneumoniae GMCH 15 [6] = tested on: K. pneumoniae GMCH 15
Protocol: as §1

K. pneumoniae P3R (M1-R) = settings: broth microdilution, CLSI guidelines; M1-resistant mutant of ATCC 700603
Protocol: as §1

P. aeruginosa ATCC 27853 [7] = settings: ATCC 27853
Protocol: as §1

[8] = tested on: Proteus mirabilis MTCC 1429
Protocol: as §1

[9] = tested on: Serratia marcescens MTCC 97
Protocol: as §1

A. baumannii ATCC 19606 [10] = test: microbe, parasite or virus in culture
Protocol: (§2) Acinetobacter baumannii ATCC 19606, Pseudomonas aeruginosa ATCC 27853, K. pneumoniae ATCC 700603, K. pneumoniae P3R, K. pneumoniae GMCH 13 and K. pneumoniae GMCH 15 were grown in CA-MHB and adjusted to ~4 × 10^5 CFU/ml. 100 µl of fresh CA-MHB containing carbonyl cyanide m-chlorophenyl hydrazine (CCCP) or phenylalanine-arginine beta-naphthylamide (PAβN) (at a final concentration of their 1/4th of MIC or 1/8th of MIC) was added to the wells of a 96-well flat bottom plate. Tridecaptin M was diluted in a 2-fold manner. 100 µl of culture was added and the plates were incubated for 16 to 18 h at 37 °C and observed for MICs. The fold modulation in MICs of tridecaptin M was calculated by comparing the results in the presence or absence of CCCP and PAβN.

K. pneumoniae GMCH 13 [11] = test: microbe, parasite or virus in culture
Protocol: as §2

K. pneumoniae GMCH 15 [12] = test: microbe, parasite or virus in culture
Protocol: as §2

[13] = tested on: K. pneumoniae P3R (Tri-M Resistant); test: microbe, parasite or virus in culture; settings: for Intrinsic Activity; MIC: ~4 × 10^5 CFU/ml, CA-MHB, 16 to 18 h, 37 °C
Protocol: as §2

P. aeruginosa ATCC 27853 [14] = test: microbe, parasite or virus in culture
Protocol: as §2

[15] = tested on: outer membrane of A. baumannii ATCC 19606, P. aeruginosa ATCC 27853, K. pneumoniae ATCC 700603, P3R; test: Outer membrane permeabilization (NPN assay); assay type: cell-based; settings: peptide 4 µg/ml and 8 µg/ml; triplicate, three biological repeats
Protocol: For outer membrane permeabilization study, NPN dye was used as described previously. A. baumannii ATCC 19606, P. aeruginosa ATCC 27853, K. pneumoniae ATCC 700603 were treated with two different concentrations of the peptide (4 µg/ml and 8 µg/ml). To check alteration in the cytoplasmic membrane potential, DiSC3(5) probe was used[11].

[16] = Order of elution in RP-HPLC (hydrophobicity); assay type: physicochemical; settings: C18, acetonitrile/water with 0.075% TFA, in words
Protocol: The strain M-152 was inoculated in 700 ml MHB in 2 L Erlenmeyer flask, and the crude fermentation extract preparation, ion-exchange chromatography and the first step of RP-HPLC were performed as described for tridecaptin M[11]. The peaks obtained in HPLC were assayed against K. pneumoniae using agar well diffusion method. The active peaks (Fig. 1) were purified by the second round of HPLC under different conditions, optimized for each compound. The mobile phase system for all the peaks consisted of solvent A as 20% acetonitrile in Milli-Q and solvent B as 100% acetonitrile. Both solvents contained 0.075% TFA. C18 column (Waters, XBridge, 10 mm × 250 mm, 5 µm, 130 Å) was used to purify the compounds. Following gradient was used for the resolution of different components; for P1, 8% B to 26% B in 30 min, for P3, 8% B to 25% B in 23 min, for P4, 8% B to 23% B in 22 min, for P5, 3% B to 21.5% B in 24 min, for P6, 10% B to 25% B in 25 min, for P7, 8% B to 28% B in 25 min, for P8, 8% B to 26% B in 23 min, for P10, 10% B to 28% B in 30 min, for P11, 10% B to 28% B in 31 min. In two to three min, the gradient was reversed to initial column conditions and was equilibrated for five to six min, before the next injection. Multiple injections were given to generate a sufficient quantity of each compound for further studies.

[17] = tested on: K. pneumoniae ATCC 700603; test: Synergy assay with efflux pump inhibitors; assay type: cell-based
Protocol: as §2

[18] = tested on: efflux in A. baumannii ATCC 19606; settings: CCCP 4 mg/L, Nile Red 5 μM, energization with 50 mM glucose, fluorescence 552/636 nm
Protocol: To assess the effect of CCCP on efflux in A. baumannii ATCC 19606, the Nile Red efflux assay was used[17]. The overnight grown culture was centrifuged at 3000 g for 10 min at room temperature. The pellet was resuspended in 20 mM potassium phosphate buffer (pH 7.0) containing 1 mM MgCl2 and washed twice with the same buffer. The cells were adjusted to an OD660 of 1.0 and the aliquots were transferred to a glass tubes containing CCCP at a final concentration of 4 mg/L. After 15 min, Nile Red was added to a final concentration of 5 μM, and the cell suspension was incubated in a shaker (140 rpm, 37 °C) for 3 h. The cells were kept at room temperature for 60 min and centrifuged for 5 min at 3000 g. The supernatant was discarded and the cell pellet was resuspended in assay buffer. Next, Nile Red efflux was immediately triggered by rapid energization with 50 mM glucose and the fluorescence was recorded at excitation and emission wavelength 552 nm and 636 nm, respectively, over a period of 5 min.

[19] = ~4 × 10^5 CFU/ml, CA-MHB, 16 to 18 h, 37 °C

Q: What does the source list for `CC[C@H](C)CCCCC(=O)NCC(=O)N[C@H](CCN)C(=O)NCC(=O)N[C@H](CO)C(=O)N[C@H](Cc1c[nH]c2ccccc12)C(=O)N[C@@H](CO)C(=O)N[C@@H](CCN)C(=O)N[C@H](CCN)C(=O)N[C@H](C(=O)N[C@@H](CCC(=O)O)C(=O)N[C@H](C(=O)N[C@@H](C(=O)N[C@@H](CO)C(=O)O)[C@@H](C)CC)[C@@H](C)CC)[C@@H](C)CC` [M1, tridecaptin M] (X1-G[dDab]G[dS][dW]S[Dab][dDab]IEI[d(aIle)]S-OH)?
A: Peptide MIC (A. baumannii ATCC 19606 [1]): 64 µg/mL; Peptide MIC (E. coli CF-23 (mcr-1)): 4 µg/mL; Peptide MIC [2]: 4 µg/mL; Peptide MIC [3]: 4 µg/mL; Peptide MIC [4]: 4 µg/mL; Peptide MIC (K. pneumoniae GMCH 13 [5]): 8 µg/mL; Peptide MIC (K. pneumoniae GMCH 15 [6]): 16 µg/mL; Peptide MIC (K. pneumoniae P3R (M1-R)): 64 µg/mL; Peptide MIC (P. aeruginosa ATCC 27853 [7]): >128 µg/mL; Peptide MIC [8]: >16 µg/mL; Peptide MIC [9]: 8 µg/mL; Intrinsic Activity; MIC (A. baumannii ATCC 19606 [10]; ATCC 19606): 64 µg/mL; MIC of peptide in the presence of PAβN (A. baumannii ATCC 19606 [10]; ATCC 19606): 64 µg/mL; FICI (K. pneumoniae GMCH 13 [11]; GMCH 13): 0.75; Intrinsic Activity; MIC (K. pneumoniae GMCH 13 [11]; GMCH 13): 8 µg/mL; MIC of peptide in the presence of PAβN (K. pneumoniae GMCH 13 [11]; GMCH 13): 8 µg/mL; Intrinsic Activity; MIC (K. pneumoniae GMCH 15 [12]; GMCH 15): 16 µg/mL; MIC of peptide in the presence of PAβN (K. pneumoniae GMCH 15 [12]; GMCH 15): 16 µg/mL; MIC of peptide in the presence of CCCP ([13]; CCCP at 1/4th MIC): 64 µg/mL; MIC of peptide in the presence of CCCP ([13]; CCCP at 1/8th MIC): 64 µg/mL; MIC of peptide in the presence of PAβN ([13]; PAβN at 1/4th MIC): 64 µg/mL; MIC of peptide in the presence of PAβN ([13]; PAβN at 1/8th MIC): 64 µg/mL; Intrinsic Activity; MIC [13]: 64 µg/mL; Intrinsic Activity; MIC (P. aeruginosa ATCC 27853 [14]; ATCC 27853): 256 µg/mL; MIC of peptide in the presence of CCCP (P. aeruginosa ATCC 27853 [14]; ATCC 27853): 256 µg/mL; MIC of peptide in the presence of PAβN (P. aeruginosa ATCC 27853 [14]; ATCC 27853): 256 µg/mL

Q: With `CC[C@H](C)CCCC[C@@H](O)CC(=O)N[C@@H](C(=O)N[C@H](CCN)C(=O)NCC(=O)N[C@H](CO)C(=O)N[C@H](Cc1ccccc1)C(=O)N[C@@H](CO)C(=O)N[C@@H](CCN)C(=O)N[C@H](CCN)C(=O)N[C@@H](Cc1ccccc1)C(=O)N[C@@H](CCC(=O)O)C(=O)N[C@H](C(=O)N[C@@H](C(=O)N[C@@H](CO)C(=O)O)[C@@H](C)CC)[C@@H](C)CC)C(C)C` [M11] (X2-[dV][dDab]G[dS][dF]S[Dab][dDab]FEI[d(aIle)]S-OH; N-terminus and C-terminus assumed) as the compound, how does the “Peptide MIC” value (E. coli CF-23 (mcr-1)) read?
A: 1 µg/mL

Q: And the “Peptide MIC” value [2]?
A: 1 µg/mL

Q: And the “Peptide MIC” value [3]?
A: 1 µg/mL

Q: And the “Peptide MIC” value [4]?
A: 2 µg/mL

Q: What about the “Peptide MIC” value (P. aeruginosa ATCC 27853 [7]) of the same compound?
A: 8 µg/mL

Q: What about the “Peptide MIC” value [8] of the same compound?
A: 4 µg/mL

Q: What about the “Peptide MIC” value [9] of the same compound?
A: 4 µg/mL

Q: What about the “fold modulation (reduction) of MIC in the presence of CCCP” value (A. baumannii ATCC 19606 [10]; MIC with versus without CCCP) of the same compound?
A: four

Q: What about the “Intrinsic Activity; MIC” value (A. baumannii ATCC 19606 [10]; [19]) of the same compound?
A: 4 µg/mL

Q: What about the “MIC of peptide in the presence of CCCP” value (K. pneumoniae GMCH 13 [11]; GMCH 13) of the same compound?
A: 2 µg/mL

Q: And the “Intrinsic Activity; MIC” value (K. pneumoniae GMCH 13 [11]; [19])?
A: 4 µg/mL

Q: And the “MIC of peptide in the presence of CCCP” value (K. pneumoniae GMCH 15 [12]; CCCP at 1/4th MIC)?
A: 2 µg/mL

Q: And the “MIC of peptide in the presence of CCCP” value (K. pneumoniae GMCH 15 [12]; CCCP at 1/8th MIC)?
A: 2 µg/mL

Q: And the “Intrinsic Activity; MIC” value (K. pneumoniae GMCH 15 [12]; [19])?
A: 2 µg/mL

Q: And the NPN uptake [15]?
A: greater uptake of NPN, compared to M1

Q: What about the “hydrophobicity by order of elution in HPLC” value [16] of the same compound?
A: greater hydrophobicity

Q: With `NC(N)=NCCC[C@H](NC(=O)[C@@H](N)Cc1ccccc1)C(=O)Nc1ccc2ccccc2c1` [PAβN, phenylalanine-arginine beta-naphthylamide, reference compound] (H-Phe-Arg-βNA) as the compound, how does the MIC (A. baumannii ATCC 19606 [10]; Acinetobacter baumannii, ATCC19606, read-out: Intrinsic Activity, MIC) read?
A: 64 µg/mL (≈ 143 µM)

Q: And the MIC (K. pneumoniae GMCH 13 [11]; Klebsiella pneumoniae, GMCH13, read-out: Intrinsic Activity, MIC)?
A: 256 µg/mL (≈ 573 µM)

Q: What about the MIC (K. pneumoniae GMCH 15 [12]; Klebsiella pneumoniae, GMCH15, read-out: Intrinsic Activity, MIC) of the same compound?
A: 256 µg/mL (≈ 573 µM)

Q: What about the MIC ([13]; Klebsiella pneumoniae, read-out: Intrinsic Activity, MIC) of the same compound?
A: 256 µg/mL (≈ 573 µM)

Q: And the MIC (P. aeruginosa ATCC 27853 [14]; Pseudomonas aeruginosa, ATCC27853, read-out: Intrinsic Activity, MIC)?
A: 64 µg/mL (≈ 143 µM)

Q: What about the MIC ([17]; Klebsiella pneumoniae, ATCC700603, read-out: Intrinsic Activity, MIC) of the same compound?
A: 256 µg/mL

Q: For “carbonyl cyanide m-chlorophenyl hydrazine [CCCP, reference compound]”, which “Intrinsic Activity; MIC” value (A. baumannii ATCC 19606 [10]; [19]) is on record?
A: 64 µg/mL

Q: What about the “Intrinsic Activity; MIC” value (K. pneumoniae GMCH 13 [11]; [19]) of the same compound?
A: 32 µg/mL

Q: What about the “Intrinsic Activity; MIC” value (K. pneumoniae GMCH 15 [12]; [19]) of the same compound?
A: 64 µg/mL

Q: And the “Intrinsic Activity; MIC” value [13]?
A: 128 µg/mL

Q: And the “Intrinsic Activity; MIC” value (P. aeruginosa ATCC 27853 [14]; [19])?
A: 64 µg/mL

Q: What about the “Intrinsic Activity; MIC” value [17, 19] of the same compound?
A: 128 µg/mL

Q: What about the “effect on efflux of Nile red dye” value [18] of the same compound?
A: inhibited the efflux of Nile red dye
